Assay results taken from patent US20170065564A1, “BIS-CYCLIC GUANIDINE COMPOUND COMPOSITIONS, METHODS OF USE AND TREATMENT THEREOF” (University of South Florida, priority 2014, published 2017).
Values after ≈ are worked out from the molar mass of the structure shown.

Legend:
A. baumannii = test: Resistance serial passage assay; type: cell-based, Acinetobacter baumannii; conditions: 8 passages, concentration doubled each day
Procedure: (§1) ESKAPE pathogens were grown overnight in liquid media at 37° C. These cultures were then diluted 1:100 in fresh media, and seeded into a 96-well plate. Lead bis-cyclic guanidines or control agents were added to respective wells at half MIC concentrations. Plates were then incubated for 24 hours at 37° C., with bacteria removed from these cultures on the following day, to inoculate fresh media (1:100 dilution) containing compounds at a 2-fold higher concentrations. These were then grown overnight, and the procedure repeated for a total of eight days. […] Each experiment was performed in triplicate, yielding identical results.

K. pneumoniae = test: Resistance serial passage assay; type: cell-based, Klebsiella pneumoniae; conditions: 8 passages, concentration doubled each day
Procedure: as §1

Klebsiella pneumoniae [1] = test: Minimal bactericidal concentration (MBC) assay; type: cell-based; conditions: purified compound; read-out: MBC90
Procedure: (§2) Briefly, compound was washed by centrifugation and serial dilution, before plating on Tryptic Soy Agar (TSA). Plates were incubated for 24 hours at 37° C. and cell viability assessed by determining CFU/ml at each concentration, for every compound. Percent recovery was then determined compared to CFU/ml from no drug controls. All concentrations and controls were tested using three biological replicates, alongside two technical replicates for each data point.

Staphylococcus aureus = test: Minimal bactericidal concentration (MBC) assay; type: cell-based; conditions: purified compound; read-out: MBC90
Procedure: as §2

Enterobacter cloacae = test: Minimal bactericidal concentration (MBC) assay; type: cell-based; conditions: purified compound; read-out: MBC90
Procedure: as §2

Pseudomonas aeruginosa [2] = test: Minimal bactericidal concentration (MBC) assay; type: cell-based; conditions: purified compound; read-out: MBC90
Procedure: as §2

Enterococcus faecium = test: Minimal bactericidal concentration (MBC) assay; type: cell-based; conditions: purified compound; read-out: MBC90
Procedure: as §2

Acinetobacter baumannii [3] = test: Minimal bactericidal concentration (MBC) assay; type: cell-based; conditions: purified compound; read-out: MBC90
Procedure: as §2

[4] = test system: Enterobacter cloacae biofilm; test: Minimum biofilm eradication concentration (MBEC) assay; type: cell-based; conditions: 24 h biofilm, purified compound
Procedure: (§3) The minimum biofilm eradication concentration (MBEC) was determined in 96-well microtiter plates as follows. Broth cultures of ESKAPE strains were grown using the conditions described above. Biofilms for each of the ESKAPE pathogens were generated from these as we have previously described for S. aureus, however human serum was not used for non-staphylococcal organisms.^44 46 For all organisms, biofilms were developed by standardizing an overnight culture into fresh media to an OD600 of 0.5 and adding 150 μl into each well of a 96-well microtiter plate. […] These cultures were incubated at 37° C. overnight alongside no drug controls. After 24 hours, the media was removed from wells and the biofilm resuspended in phosphate buffered saline (PBS). Cultures were mixed by vigorous pipetting, before being serially diluted in PBS, and plated in duplicate on relevant agar. Plates were incubated at 37° C. for 24 hours, and CFUs determined by enumeration. Each analysis was performed using three technical replicates, and antibiofilm activity was determined by comparing treated to untreated samples.

[5] = test system: Enterococcus faecium biofilm; test: as above; type: cell-based; conditions: 24 h biofilm, purified compound
Procedure: as §3

[6] = test system: Acinetobacter baumannii biofilm; test: as above; type: cell-based; conditions: 24 h biofilm, purified compound
Procedure: as §3

Acinetobacter baumannii [7] = test: MIC micro broth dilution assay; type: cell-based; parameters: key to stacked score activity, 100/MIC, A: stacked score = 100/MIC
Summary of the method: (§4)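 Strains were multidrug-resistant clinical isolates grown in LB (Gram-negative) or TSB (Gram-positive), diluted 1:1,000 before compound addition.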

Pseudomonas aeruginosa [8] = test: MIC micro broth dilution assay; type: cell-based
Procedure: For this study we used a representative panel of multi-drug resistant clinical ESKAPE pathogen isolates (Supplemental Table S6).^42 43 3a, 44 45 Gram-positive organisms were grown in tryptic soy broth media (TSB), whilst Gram-negative organisms were grown in lysogeny Broth (LB), as described by us previously. ^43 MIC and MBC determination assays.
Broth cultures of ESKAPE strains were grown overnight before being diluted 1 in 1,000 in fresh media. Sterile 96-well plates were loaded with culture and compounds (in DMF) were added at decreasing concentrations to equal a total volume of 200 μl per well. Care was taken to not add more than 2.0% DMF to any well. Plates were then incubated at 37° C., and MICs determined after 24 hours by visual inspection for a lack of turbidity in wells. All assays were performed in triplicate with identical results obtained. For both the scaffold ranking and positional scanning samples, relative broad-spectrum activity was determined via stacked scores: […]

Klebsiella pneumoniae [9] = test: MIC micro broth dilution assay; type: cell-based; parameters: key to stacked score activity, 100/MIC, K: stacked score = 100/MIC
Summary of the method: as §4

[10] = panel of K. pneumoniae clinical isolates

CCCCCCCN1C(=N)N(CCCC[C@H]2CNC(=N)N2CCC23CC4CC(CC(C4)C2)C3)C[C@@H]1CCCC [Compound 19] was tested, and the “increase in MIC after serial passage” value (A. baumannii) was 8 fold, the “increase in MIC after serial passage” value (K. pneumoniae) was 8 fold and the MBC (Klebsiella pneumoniae [1]) was 2.61 µM (≈ 1.41 µg/mL). For the same compound, the MBC (Staphylococcus aureus) was 2.88 µM (≈ 1.56 µg/mL), the MBC (Enterobacter cloacae) was 2.70 µM (≈ 1.46 µg/mL) and the MBC (Pseudomonas aeruginosa [2]) was 2.77 µM (≈ 1.5 µg/mL). The MBC (Enterococcus faecium) was 3.59 µM (≈ 1.94 µg/mL), the MBC (Acinetobacter baumannii [3]) was 4.66 µM (≈ 2.52 µg/mL) and the MBEC50 [4] was 15.14 µM. The MBEC50 [5] was 13.27 µM, the MBEC50 [6] was 24.07 µM and the “stacked score activity, 100/MIC, A” value (Acinetobacter baumannii [7]; A. baumannii) was 25. For the same compound, the MIC (Acinetobacter baumannii [7]; A. baumannii isolate 1403) was 2.0 µM (≈ 1.08 µg/mL), the MIC (Acinetobacter baumannii [7]; A. baumannii isolate 1643) was 2.0 µM (≈ 1.08 µg/mL) and the MIC (Acinetobacter baumannii [7]; A. baumannii isolate 1644) was 2.0 µM (≈ 1.08 µg/mL). For the same compound, the MIC (Acinetobacter baumannii [7]; A. baumannii isolate 1647) was 2.0 µM (≈ 1.08 µg/mL), the MIC (Acinetobacter baumannii [7]; A. baumannii isolate 1648) was 2.0 µM (≈ 1.08 µg/mL) and the MIC (Acinetobacter baumannii [7]; A. baumannii isolate 1649) was 2.0 µM (≈ 1.08 µg/mL). For the same compound, the MIC (Acinetobacter baumannii [7]; A. baumannii isolate 1650) was 2.0 µM (≈ 1.08 µg/mL), the MIC (Acinetobacter baumannii [7]; A. baumannii isolate 1651) was 2.0 µM (≈ 1.08 µg/mL) and the MIC (Acinetobacter baumannii [7]; A. baumannii isolate 1653) was 2.0 µM (≈ 1.08 µg/mL). It also gave an MIC (Acinetobacter baumannii [7]; A. baumannii isolate 1654) of 2.0 µM (≈ 1.08 µg/mL), an MIC (Acinetobacter baumannii [7]; purified compound, Table 1) of 1.66 µM (≈ 0.898 µg/mL) and an MIC (Pseudomonas aeruginosa [8]; P. aeruginosa isolate 1414) of 5.0 µM (≈ 2.7 µg/mL). It also gave an MIC (Pseudomonas aeruginosa [8]; P. aeruginosa isolate 1415) of 5.0 µM (≈ 2.7 µg/mL), an MIC (Pseudomonas aeruginosa [8]; P. aeruginosa isolate 1416) of 3.0 µM (≈ 1.62 µg/mL) and an MIC (Pseudomonas aeruginosa [8]; P. aeruginosa isolate 1417) of 3.0 µM (≈ 1.62 µg/mL). It also gave an MIC (Pseudomonas aeruginosa [8]; P. aeruginosa isolate 1418) of 7.0 µM (≈ 3.79 µg/mL), an MIC (Pseudomonas aeruginosa [8]; P. aeruginosa isolate 1419) of 3.0 µM (≈ 1.62 µg/mL) and an MIC (Pseudomonas aeruginosa [8]; P. aeruginosa isolate 1420) of 5.0 µM (≈ 2.7 µg/mL). For the same compound, the MIC (Pseudomonas aeruginosa [8]; P. aeruginosa isolate 1421) was 5.0 µM (≈ 2.7 µg/mL), the MIC (Pseudomonas aeruginosa [8]; P. aeruginosa isolate 1422) was 5.0 µM (≈ 2.7 µg/mL) and the MIC (Pseudomonas aeruginosa [8]; P. aeruginosa isolate 1423) was 2.0 µM (≈ 1.08 µg/mL). The “concentration inhibiting 90% of isolates” value (Pseudomonas aeruginosa [8]; panel of P. aeruginosa clinical isolates) was 10 µM, the MIC (Pseudomonas aeruginosa [8]; purified compound, Table 1) was 1.66 µM (≈ 0.898 µg/mL) and the “stacked score activity, 100/MIC, K” value (Klebsiella pneumoniae [9]; K. pneumoniae) was 20. The MIC (Klebsiella pneumoniae [9]; K. pneumoniae isolate 1408) was 2.0 µM (≈ 1.08 µg/mL), the MIC (Klebsiella pneumoniae [9]; K. pneumoniae isolate 1409) was 3.0 µM (≈ 1.62 µg/mL) and the MIC (Klebsiella pneumoniae [9]; K. pneumoniae isolate 1410) was 3.0 µM (≈ 1.62 µg/mL). For the same compound, the MIC (Klebsiella pneumoniae [9]; K. pneumoniae isolate 1411) was 2.0 µM (≈ 1.08 µg/mL), the MIC (Klebsiella pneumoniae [9]; K. pneumoniae isolate 1412) was 3.0 µM (≈ 1.62 µg/mL) and the MIC (Klebsiella pneumoniae [9]; K. pneumoniae isolate 1413) was 3.0 µM (≈ 1.62 µg/mL). For the same compound, the MIC (Klebsiella pneumoniae [9]; K. pneumoniae isolate 1433) was 2.0 µM (≈ 1.08 µg/mL), the MIC (Klebsiella pneumoniae [9]; K. pneumoniae isolate 1434) was 5.0 µM (≈ 2.7 µg/mL) and the MIC (Klebsiella pneumoniae [9]; K. pneumoniae isolate 1440) was 3.0 µM (≈ 1.62 µg/mL). For the same compound, the MIC (Klebsiella pneumoniae [9]; K. pneumoniae isolate 1441) was 2.0 µM (≈ 1.08 µg/mL), the “concentration inhibiting 70% of strains” value (Klebsiella pneumoniae [9]; [10]) was 2 µM and the “concentration inhibiting 90% of isolates” value (Klebsiella pneumoniae [9]; [10]) was 5 µM. For the same compound, the MIC (Klebsiella pneumoniae [9]; purified compound, Table 1) was 1.66 µM (≈ 0.898 µg/mL).
